Experimental data as given in PubChem BioAssay (NCI).
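Where inhibition never reached the appropriate level, the endpoint shown equals the highest concentration tested. Otherwise, values were interpolated linearly from a five-concentration, 48-hour dose response in 96-well plates. TGI: total growth inhibition.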

How the values were obtained:
Test in all cases: growth of human tumour cells (NCI), 48 h
[1] = tested on: CCRF-CEM leukemia
[2] = tested on: DU-145 prostate
[3] = tested on: HCT-116 colon
[4] = tested on: HOP-62 NSCLC
[5] = tested on: HOP-92 NSCLC
[6] = tested on: M14 melanoma
[7] = tested on: MDA-MB-231 breast
[8] = tested on: MDA-MB-435
[9] = tested on: NCI-H226 lung
[10] = tested on: NCI-H23 lung
[11] = tested on: OVCAR-5 ovarian
[12] = tested on: OVCAR-8 ovarian
[13] = tested on: PC-3 prostate
[14] = tested on: SK-MEL-2 melanoma
[15] = tested on: SN12C renal
[16] = tested on: T-47D breast
[17] = tested on: UACC-62 melanoma
[18] = tested on: MALME-3M melanoma
[19] = tested on: OVCAR-4 ovarian
[20] = tested on: RPMI-8226 leukemia

| Compound | TGI [1] [µM] | TGI [2] [µM] | TGI [3] [µM] | TGI [4] [µM] | TGI [5] [µM] | TGI [6] [µM] | TGI [7] [µM] | TGI [8] [µM] | TGI [9] [µM] | TGI [10] [µM] | TGI [11] [µM] | TGI [12] [µM] | TGI [13] [µM] | TGI [14] [µM] | TGI [15] [µM] | TGI [16] [µM] | TGI [17] [µM] | TGI [18] [µM] | TGI [19] [µM] | TGI [20] [µM] |
| --- | --- | --- | --- | --- | --- | --- | --- | --- | --- | --- | --- | --- | --- | --- | --- | --- | --- | --- | --- | --- |
| CCOC(=O)c1cc(=O)c2cccc3c2n1CCS3 | > 100 | > 100 | > 100 | > 100 | > 100 | > 100 | > 100 | > 100 | > 100 | > 100 | > 100 | > 100 | > 100 | > 100 | > 100 | > 100 | > 100 |  |  |  |
| CN(C)c1ccc(N=C2N=C(Nc3ccccc3)C(=Nc3ccccc3)S2)cc1 | > 100 | > 100 | > 100 | > 100 | > 100 | > 100 | > 100 | > 100 | > 100 | > 100 | > 100 | > 100 | > 100 | > 100 | > 100 | > 100 | > 100 | > 100 | > 100 |  |
| O=C1NC(=O)C(CCC(=O)c2cccc3ccccc23)C(=O)N1 |  | > 100 | > 100 |  | > 100 | > 100 | > 100 | > 100 | > 100 | > 100 | > 100 | > 100 | > 100 | > 100 | > 100 | > 100 | > 100 |  | > 100 | > 100 |
| CCN(CC)CCCNc1ccc([N+](=O)[O-])c2nc3ccccc3c(N)c12 | 2.91 | > 10 | 1.48 | > 10 | > 10 | 2.43 | 2.09 | 2.9 | > 10 | 2.76 | 3.43 | 4.51 | 2.25 | 2.53 | > 10 |  | > 10 | > 10 | 1.94 | 8.35 |
| COc1c(Sc2c(SCSc3cnc4ccccc4c3Sc3cnc4ccccc4c3OC)cnc3ccccc23)cnc2ccccc12 | > 100 | > 100 | > 100 | > 100 | 84 | > 100 | > 100 | > 100 |  | > 100 | > 100 | > 100 | > 100 | > 100 | > 100 | > 100 | > 100 |  | > 100 | > 100 |
| CCC1C(NC(=O)OC)C(=O)N1[C@@H](C)c1ccccc1 (some centres undefined) |  | > 100 | > 100 | > 100 | > 100 | > 100 | > 100 | > 100 | > 100 | > 100 | > 100 | > 100 | > 100 | > 100 | > 100 | > 100 | > 100 | > 100 | > 100 | > 100 |
| CCOC(=O)c1c(NC(=S)Nc2ccccc2)sc2c1CCN(C)C2 | > 100 | > 100 | > 100 | > 100 |  | > 100 | > 100 |  | > 100 | > 100 | > 100 | > 100 | > 100 | > 100 | > 100 | > 100 | > 100 |  |  | > 100 |
| COc1ccccc1NC1Oc2cc3c(cc2C(c2cc(OC)c(OC)c(OC)c2)C1C)OCO3 (centres undefined) | > 50.3 | > 100 | > 33.1 | > 51.1 | > 22.8 | > 100 | > 23.9 |  | 9.92 | > 82.1 | > 100 | > 64.2 | > 100 | > 100 | > 65.3 | > 100 | > 60.9 | 9.43 | > 78.5 | 21 |
| Fc1cc2nc3n(c2cc1F)C(c1c(F)cccc1F)SC3 (centres undefined) |  | > 100 | 54.1 | > 100 | > 100 | 81.5 | > 100 | > 100 | > 100 | > 100 | > 100 | > 100 | > 100 | > 100 | > 100 | > 100 | > 100 | > 100 | > 100 | > 100 |
| COc1cc(C2c3cc4c(cc3OC(NNC(N)=S)C2C)OCO4)cc(OC)c1OC (centres undefined) |  | > 100 | > 80.7 | > 100 | 7.9 | > 51.9 | 8.68 |  | 21 |  | > 100 | > 55.1 |  | > 100 | > 100 | > 31.6 | > 100 | > 100 | > 100 | 0.847 |
| CCOC(=O)C(=[N+]=[N-])C(=O)CSC#N | > 100 | > 100 | > 100 | > 100 |  | > 100 | > 100 | > 100 | > 100 | > 100 | > 100 | > 100 | > 100 | > 100 | > 100 | > 100 | > 100 | > 100 | > 100 |  |
| Cc1cccc(N=Nc2c(C)nn(C(=O)CC(=O)Nc3ccc(Cl)cc3)c2C)c1 | 98.6 | > 100 | > 100 | > 100 | 79.6 | > 100 | > 100 | > 100 | > 100 | > 100 | > 100 | > 100 | > 100 | > 100 | > 100 | > 100 | > 100 |  | > 100 | > 100 |
| O=S(Cc1ccccc1)c1ccccc1Cn1cccc1 (centres undefined) | > 100 | > 100 | > 100 | > 100 | > 100 | > 100 | > 100 | > 100 |  | > 100 | > 100 |  | > 100 | > 100 | > 100 | > 100 | > 100 | > 100 | > 100 | > 100 |
